Data reported in patent publication US11130756B2, “[1,2,4]Triazolo[4,3-A]pyridinyl substituted indole compounds” (BRISTOL-MYERS SQUIBB COMPANY, priority 2017, dated 2021).

Assays:
Type in all cases: cell-based
human TLR7 = molecular target: T1, human TLR7 (Homo sapiens, UniProt Q9NYK1); assay: TLR7 inhibition reporter assay (HEK-Blue, SEAP); conditions: HEK-Blue cells overexpressing human TLR7, gardiquimod 7.5 μM, 22 hour incubation
T1 construct: host or cells: HEK-Blue cells
T1 sequence (Q9NYK1 27-1049): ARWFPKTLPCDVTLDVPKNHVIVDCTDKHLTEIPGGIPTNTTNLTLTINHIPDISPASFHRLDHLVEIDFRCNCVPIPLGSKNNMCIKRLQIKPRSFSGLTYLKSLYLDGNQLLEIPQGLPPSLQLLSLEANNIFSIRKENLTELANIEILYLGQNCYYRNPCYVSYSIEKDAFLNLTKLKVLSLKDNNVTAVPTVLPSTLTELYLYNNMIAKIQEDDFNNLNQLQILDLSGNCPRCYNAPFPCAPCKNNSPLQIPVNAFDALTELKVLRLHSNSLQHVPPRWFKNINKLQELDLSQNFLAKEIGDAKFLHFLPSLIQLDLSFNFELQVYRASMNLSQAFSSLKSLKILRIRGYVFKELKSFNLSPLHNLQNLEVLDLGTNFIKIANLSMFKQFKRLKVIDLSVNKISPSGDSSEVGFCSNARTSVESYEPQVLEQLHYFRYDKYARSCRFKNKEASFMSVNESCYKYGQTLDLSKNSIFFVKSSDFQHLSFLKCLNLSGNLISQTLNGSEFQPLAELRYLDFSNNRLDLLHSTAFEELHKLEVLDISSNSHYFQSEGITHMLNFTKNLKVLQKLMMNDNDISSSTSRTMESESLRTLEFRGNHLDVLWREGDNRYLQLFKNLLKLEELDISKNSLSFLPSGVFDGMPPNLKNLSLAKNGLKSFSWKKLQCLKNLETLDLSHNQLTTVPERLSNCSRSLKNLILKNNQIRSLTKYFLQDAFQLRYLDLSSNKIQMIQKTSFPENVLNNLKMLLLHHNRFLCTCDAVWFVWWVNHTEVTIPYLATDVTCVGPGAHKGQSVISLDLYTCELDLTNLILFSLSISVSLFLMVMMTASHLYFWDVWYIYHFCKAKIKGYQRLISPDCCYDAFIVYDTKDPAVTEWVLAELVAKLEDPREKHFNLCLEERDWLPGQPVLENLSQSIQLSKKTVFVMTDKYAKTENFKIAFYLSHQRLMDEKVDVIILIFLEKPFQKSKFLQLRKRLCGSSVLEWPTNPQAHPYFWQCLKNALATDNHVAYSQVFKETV
In short: (§1)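 Human TLR7/8/9 HEK-Blue reporter lines; dose range 0.05 nM–50 μM; 30 min RT preincubation; stimulus gardiquimod 7.5 μM / R848 15.9 μM / ODN2006 5 nM respectively; 22 h, 37 °C; SEAP detected colorimetrically.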

human TLR8 = molecular target: T2, human TLR8 (Homo sapiens, UniProt Q9NR97); assay: TLR8 inhibition reporter assay (HEK-Blue, SEAP); conditions: HEK-Blue cells overexpressing human TLR8, R848 15.9 μM, 22 hour incubation
T2 construct: host or cells: HEK-Blue cells
T2 sequence (Q9NR97 27-1041): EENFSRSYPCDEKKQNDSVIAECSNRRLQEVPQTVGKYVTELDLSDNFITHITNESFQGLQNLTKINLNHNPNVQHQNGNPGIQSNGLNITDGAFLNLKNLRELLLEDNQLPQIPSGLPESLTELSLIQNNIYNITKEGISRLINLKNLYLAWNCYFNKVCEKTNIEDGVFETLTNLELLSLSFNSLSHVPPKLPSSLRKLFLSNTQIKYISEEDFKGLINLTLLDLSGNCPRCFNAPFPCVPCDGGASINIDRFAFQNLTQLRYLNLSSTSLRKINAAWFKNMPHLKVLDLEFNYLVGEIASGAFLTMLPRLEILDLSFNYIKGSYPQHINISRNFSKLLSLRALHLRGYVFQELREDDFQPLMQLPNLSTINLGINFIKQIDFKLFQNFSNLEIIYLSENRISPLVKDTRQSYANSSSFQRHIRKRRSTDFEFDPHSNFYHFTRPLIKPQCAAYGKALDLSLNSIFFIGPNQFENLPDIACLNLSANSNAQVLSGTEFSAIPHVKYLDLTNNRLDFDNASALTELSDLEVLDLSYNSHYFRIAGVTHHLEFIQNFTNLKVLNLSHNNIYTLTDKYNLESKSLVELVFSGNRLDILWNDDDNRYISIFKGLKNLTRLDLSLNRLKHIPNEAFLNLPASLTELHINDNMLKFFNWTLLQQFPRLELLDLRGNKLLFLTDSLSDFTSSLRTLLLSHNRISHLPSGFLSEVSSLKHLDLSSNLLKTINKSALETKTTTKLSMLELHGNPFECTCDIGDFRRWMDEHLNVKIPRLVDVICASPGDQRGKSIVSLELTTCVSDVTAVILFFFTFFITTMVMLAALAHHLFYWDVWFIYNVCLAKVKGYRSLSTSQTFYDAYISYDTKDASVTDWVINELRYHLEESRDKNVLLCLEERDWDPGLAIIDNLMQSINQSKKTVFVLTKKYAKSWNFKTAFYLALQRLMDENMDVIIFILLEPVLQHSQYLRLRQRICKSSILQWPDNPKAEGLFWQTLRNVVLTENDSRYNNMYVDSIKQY
In short: as §1

human TLR9 = molecular target: T3, human TLR9 (Homo sapiens, UniProt Q9NR96); assay: TLR9 inhibition reporter assay (HEK-Blue, SEAP); conditions: HEK-Blue cells overexpressing human TLR9, ODN2006 5 nM, 22 hour incubation
T3 construct: host or cells: HEK-Blue cells
T3 sequence (Q9NR96 26-1032): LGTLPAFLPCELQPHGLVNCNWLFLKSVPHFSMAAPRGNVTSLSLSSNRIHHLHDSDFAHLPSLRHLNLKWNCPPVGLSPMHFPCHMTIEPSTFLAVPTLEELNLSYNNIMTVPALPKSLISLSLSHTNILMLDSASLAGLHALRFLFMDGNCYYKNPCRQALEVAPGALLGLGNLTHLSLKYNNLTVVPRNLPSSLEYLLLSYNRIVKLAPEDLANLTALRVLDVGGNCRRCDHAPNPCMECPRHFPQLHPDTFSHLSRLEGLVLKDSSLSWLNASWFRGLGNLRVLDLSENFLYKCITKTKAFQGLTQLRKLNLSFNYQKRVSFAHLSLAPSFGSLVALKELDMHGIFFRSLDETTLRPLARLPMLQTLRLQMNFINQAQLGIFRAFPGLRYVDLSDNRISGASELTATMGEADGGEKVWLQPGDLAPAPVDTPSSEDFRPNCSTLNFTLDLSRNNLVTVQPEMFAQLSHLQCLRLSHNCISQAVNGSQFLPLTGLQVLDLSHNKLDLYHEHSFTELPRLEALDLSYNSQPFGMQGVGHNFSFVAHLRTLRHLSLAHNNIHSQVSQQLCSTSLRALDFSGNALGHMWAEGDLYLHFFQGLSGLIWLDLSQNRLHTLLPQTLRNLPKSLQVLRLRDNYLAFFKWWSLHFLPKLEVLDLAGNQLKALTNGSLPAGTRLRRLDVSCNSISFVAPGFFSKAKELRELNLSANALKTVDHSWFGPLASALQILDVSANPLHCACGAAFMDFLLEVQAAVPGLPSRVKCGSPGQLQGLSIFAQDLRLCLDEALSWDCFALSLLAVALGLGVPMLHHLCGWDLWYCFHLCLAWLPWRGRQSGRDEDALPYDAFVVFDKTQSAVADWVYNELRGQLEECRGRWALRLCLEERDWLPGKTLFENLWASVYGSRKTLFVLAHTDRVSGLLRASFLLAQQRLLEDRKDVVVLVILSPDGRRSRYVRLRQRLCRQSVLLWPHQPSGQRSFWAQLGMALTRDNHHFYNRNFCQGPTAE
In short: as §1

## Cc1nnc2ccc(-c3[nH]c4ccc(C5CCN(C(=O)CN(C)C)CC5)cc4c3C(C)C)cn12 [Example 106, 2-(dimethylamino)-1-(4-(3-isopropyl-2-(3-methyl-[1,2,4]triazolo[4,3-a]pyridin-6-yl)-1H-indol-5-yl)piperidin-1-yl)ethan-1-one]
Human TLR7
  IC50: 43 nM
Human TLR8
  IC50: 39.1 nM
Human TLR9
  IC50: 382 nM

## Cc1cc2nncn2cc1-c1[nH]c2ccc(C3CCN(C(=O)CN(C)C)CC3)cc2c1C(C)C [Example 107, 2-(dimethylamino)-1-(4-(3-isopropyl-2-(7-methyl-[1,2,4]triazolo[4,3-a]pyridin-6-yl)-1H-indol-5-yl)piperidin-1-yl)ethan-1-one]
Human TLR7
  IC50: 40.7 nM
Human TLR8
  IC50: 591 nM
Human TLR9
  IC50: 918 nM

## Cc1c(-c2[nH]c3ccc(C4CCN(C(=O)CN(C)C)CC4)cc3c2C(C)C)ccc2nncn12 [Example 108, 2-(dimethylamino)-1-(4-(3-isopropyl-2-(5-methyl-[1,2,4]triazolo[4,3-a]pyridin-6-yl)-1H-indol-5-yl)piperidin-1-yl)ethan-1-one]
Human TLR7
  IC50: 78.7 nM
Human TLR8
  IC50: 30.4 nM
Human TLR9
  IC50: 216 nM

## Cc1c(-c2[nH]c3ccc(C4CC(C)N(CC(=O)N(C)C)C(C)C4)cc3c2C(C)C)cn2cnnc2c1C (stereo not drawn) [Example 112, 2-(4-(2-(7,8-dimethyl-[1,2,4]triazolo[4,3-a]pyridin-6-yl)-3-isopropyl-1H-indol-5-yl)-2,6-dimethylpiperidin-1-yl)-N,N-dimethylacetamide]
Human TLR7
  IC50: 20.6 nM
Human TLR8
  IC50: 121 nM
Human TLR9
  IC50: 7420 nM

## Cc1c(-c2[nH]c3ccc(C4CC(C)N(C5COC5)C(C)C4)cc3c2C(C)C)cn2cnnc2c1C (stereo not drawn) [Example 115, 6-(5-(2,6-dimethyl-1-(oxetan-3-yl)piperidin-4-yl)-3-isopropyl-1H-indol-2-yl)-7,8-dimethyl-[1,2,4]triazolo[4,3-a]pyridine]
Human TLR7
  IC50: 5.6 nM
Human TLR8
  IC50: 29.7 nM
Human TLR9
  IC50: 14600 nM
